We go through two molecules from PMC12715756 (ACS Chemical Neuroscience, 2025).

Series [1] deals with T1, 5-HT2A (Homo sapiens, UniProt P28223).
T1 construct: expressed in transfected cells; host or cells: HEK293T (ATCC; RRID:CVCL_0063), transient transfection
The series can be described thus: Gq dissociation BRET assay in HEK293T cells. It counts as cell-based. The settings on record: for Emax ± SEM, %5-HT response 5-HT2A / EC50: Gq dissociation BRET; for Emax ± SEM, %5-HT response 5-HT2A: relative to 5-HT. In general terms: In BRET a luciferase serves as donor, and the signal depends on an acceptor being close.

In series [2] the target is T2, 5-HT2B (Homo sapiens, UniProt P41595).
T2 construct: expressed in transfected cells; host or cells: HEK293T (ATCC; RRID:CVCL_0063), transient transfection
T2 sequence (P41595 whole entry): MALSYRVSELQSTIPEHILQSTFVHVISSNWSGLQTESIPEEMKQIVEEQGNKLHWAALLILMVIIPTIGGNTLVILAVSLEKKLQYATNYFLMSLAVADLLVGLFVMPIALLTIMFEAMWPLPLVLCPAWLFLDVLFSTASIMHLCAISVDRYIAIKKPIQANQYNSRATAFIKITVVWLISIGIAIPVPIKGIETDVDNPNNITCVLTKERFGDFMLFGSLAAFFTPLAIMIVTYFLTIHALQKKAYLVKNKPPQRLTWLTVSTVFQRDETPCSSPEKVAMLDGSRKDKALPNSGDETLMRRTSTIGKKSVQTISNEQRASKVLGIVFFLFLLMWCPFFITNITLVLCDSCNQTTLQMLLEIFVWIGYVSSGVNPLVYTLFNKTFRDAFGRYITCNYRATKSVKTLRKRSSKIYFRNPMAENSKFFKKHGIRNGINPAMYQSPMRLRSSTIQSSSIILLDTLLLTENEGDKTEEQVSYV
The series can be described thus: Gq dissociation BRET assay in HEK293T cells. It counts as cell-based. The settings on record: for EC50: Gq dissociation BRET, read-out: EC50 5-HT2B; for Emax: HEK-293T, read-out: Emax ± SEM, %5-HT response 5-HT2B.

Series [3] deals with male Swiss CD-1 mice. The series can be described thus: Conditioned place preference (CPP). It counts as in vivo. The settings on record: for rewarding effects (CPP preference score): 10 mg/kg i.p., compared to saline; for CPP preference score: lowest dose tested. The protocol:
(§1) Male Swiss CD-1 mice (Janvier, Le Genest, France), weighing 30–35 g and aged 6–8 weeks, were used for HLA, thigmotaxis, CPP, and core body temperature experiments. Animals were housed under temperature-controlled conditions (22 ± 1 °C) with a 12 h light/dark cycle and had free access to food and water (standard laboratory diet, Panlab SL, Barcelona, Spain). Doses for HLA, thigmotaxis, CPP, and core body temperature experiments were calculated based on the free base form of each compound. For HTR experiments, male C57BL/6J mice (6–8 weeks old) were obtained from Jackson Laboratories (Bar Harbor, ME, USA) and housed up to four per cage with a reversed light-cycle (lights on at 1900 h, off at 0700 h). Food and water were provided ad libitum, except during behavioral testing. Testing was conducted between 1000 and 1830 h. Doses for HTR experiments were calculated based on the respective salt forms of the compounds.
For this experiment, an apparatus with two distinct compartments, differing in tactile and visual cues, connected by a central corridor, was used. The conditioned place preference (CPP) procedure consisted of three phases: preconditioning, conditioning, and postconditioning. In the preconditioning phase (day 0), mice were placed in the middle of the corridor and allowed to freely explore both compartments for 15 min. The time spent in each compartment was recorded and monitored using specific tracking software (Smart 3.0 Panlab, Barcelona, Spain). In the conditioning phase (day 1–day 8), access to the corridor was closed. […] On alternate days, , mice received a saline i.p. injection and were placed in the other compartment for 30 min. Mice in the control group received a saline injection in every session. The compartments and sessions in which the drug was administered were randomized. In the postconditioning phase (test day), the same conditions as the preconditioning phase were reinstated. A preference score was determined by calculating the difference in time spent in the drug-paired compartment between the post- and preconditioning phases.

Series [4] deals with male C57BL/6J mice. The series can be described thus: Head-twitch response (HTR). It counts as in vivo. The settings on record: IP, 30 min, doses based on the salt form. How it is done: as §1
The HTR was assessed using a head-mounted magnet and a magnetometer detection coil. Mice were anesthetized, a small incision was made in the scalp, and a small neodymium magnet was attached to the dorsal surface of the cranium by using dental cement. Following a two week recovery period, HTR experiments were carried out in a well-lit room with at least 7 days between sessions to avoid carryover effects. Mice (N = 4–7/group) received intraperitoneal (IP) injections of vehicle (saline) or test drug (5 mL/kg injection volume), and then activity was recorded in a glass cylinder surrounded by a magnetometer coil for 30 min. Doses for HTR experiments were calculated based on the respective salt forms of the compounds. Coil voltage was low-pass filtered (1 kHz cutoff frequency), amplified, digitized (20 kHz sampling rate, 16-bit ADC resolution), and saved to disk using a Powerlab 8/35 data acquisition system with LabChart software (ver. 8.1 ADInstruments, Colorado Springs, CO, USA). To detect head twitches, events in the recordings were transformed to scalograms, deep features were extracted using the deep convolutional neural network ResNet-50, and then the images were classified using a support vector machine (SVM). Head twitch counts were analyzed using one-way ANOVA. Posthoc comparisons were made using Dunnett’s test.

The target of series [5] is T3, DAT (Homo sapiens, UniProt Q01959). The settings on record: uptake inhibition; DAT/SERT ratio = 1/DAT / 1/SERT.
T3 sequence (Q01959 whole entry): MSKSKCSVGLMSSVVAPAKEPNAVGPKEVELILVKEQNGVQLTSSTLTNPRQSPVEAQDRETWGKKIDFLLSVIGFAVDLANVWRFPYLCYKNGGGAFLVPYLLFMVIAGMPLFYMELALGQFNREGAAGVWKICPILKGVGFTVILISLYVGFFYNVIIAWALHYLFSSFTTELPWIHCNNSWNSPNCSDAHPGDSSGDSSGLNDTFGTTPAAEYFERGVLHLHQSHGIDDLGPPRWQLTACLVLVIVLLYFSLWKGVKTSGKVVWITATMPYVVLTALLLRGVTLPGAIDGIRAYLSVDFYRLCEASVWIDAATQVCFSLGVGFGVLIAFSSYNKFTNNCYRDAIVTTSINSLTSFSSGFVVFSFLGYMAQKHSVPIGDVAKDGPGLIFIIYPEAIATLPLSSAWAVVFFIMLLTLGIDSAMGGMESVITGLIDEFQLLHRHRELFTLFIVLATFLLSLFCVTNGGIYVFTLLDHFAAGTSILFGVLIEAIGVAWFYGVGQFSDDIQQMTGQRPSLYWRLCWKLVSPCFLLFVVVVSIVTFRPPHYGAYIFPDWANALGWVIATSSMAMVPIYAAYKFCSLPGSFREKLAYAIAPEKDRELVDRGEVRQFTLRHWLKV
Series [6] addresses T3, DAT. The settings on record: for DAT/SERT ratio (EC50): efflux assays.
Series [7] addresses T3, DAT. The series can be described thus: cell-based. The settings on record: read-out: Emax [95%-CI], DAT mediated [3H]MPP+ release.
The target in series [8] is SERT (Homo sapiens, UniProt P31645). The experiment in a line: Uptake inhibition assay, [3H]5-HT uptake in HEK293 cells. In kind it is cell-based. Further details: expressed in transfected cells.
Sequence of SERT (P31645 whole entry): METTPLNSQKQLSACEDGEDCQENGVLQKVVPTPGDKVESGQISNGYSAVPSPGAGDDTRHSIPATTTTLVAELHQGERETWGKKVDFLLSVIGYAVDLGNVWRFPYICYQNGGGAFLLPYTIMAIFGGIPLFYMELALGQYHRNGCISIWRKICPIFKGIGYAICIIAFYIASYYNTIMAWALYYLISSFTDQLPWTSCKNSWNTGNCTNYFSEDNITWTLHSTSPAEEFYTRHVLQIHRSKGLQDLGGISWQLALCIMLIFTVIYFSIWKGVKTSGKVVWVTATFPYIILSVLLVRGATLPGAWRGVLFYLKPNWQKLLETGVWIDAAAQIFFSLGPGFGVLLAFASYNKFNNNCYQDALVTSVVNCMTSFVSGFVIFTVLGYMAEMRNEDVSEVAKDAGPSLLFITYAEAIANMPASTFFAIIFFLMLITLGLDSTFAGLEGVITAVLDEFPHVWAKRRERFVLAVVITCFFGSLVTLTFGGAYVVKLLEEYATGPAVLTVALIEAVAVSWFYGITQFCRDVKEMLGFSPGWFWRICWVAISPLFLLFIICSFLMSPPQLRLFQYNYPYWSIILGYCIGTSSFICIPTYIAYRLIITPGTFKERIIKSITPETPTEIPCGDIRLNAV
For series [9], the target named is T4, NET (Homo sapiens, UniProt P23975). The experiment in a line: Uptake inhibition assay, [3H]MPP+ uptake in HEK293 cells. In kind it is cell-based. Also noted: expressed in transfected cells. The settings on record: HEK293 cells, 0.02 μM [3H]MPP+; mean ± SD; read-out: IC50 ± SD, [3H]MPP+ uptake NET.
T4 sequence (P23975 whole entry): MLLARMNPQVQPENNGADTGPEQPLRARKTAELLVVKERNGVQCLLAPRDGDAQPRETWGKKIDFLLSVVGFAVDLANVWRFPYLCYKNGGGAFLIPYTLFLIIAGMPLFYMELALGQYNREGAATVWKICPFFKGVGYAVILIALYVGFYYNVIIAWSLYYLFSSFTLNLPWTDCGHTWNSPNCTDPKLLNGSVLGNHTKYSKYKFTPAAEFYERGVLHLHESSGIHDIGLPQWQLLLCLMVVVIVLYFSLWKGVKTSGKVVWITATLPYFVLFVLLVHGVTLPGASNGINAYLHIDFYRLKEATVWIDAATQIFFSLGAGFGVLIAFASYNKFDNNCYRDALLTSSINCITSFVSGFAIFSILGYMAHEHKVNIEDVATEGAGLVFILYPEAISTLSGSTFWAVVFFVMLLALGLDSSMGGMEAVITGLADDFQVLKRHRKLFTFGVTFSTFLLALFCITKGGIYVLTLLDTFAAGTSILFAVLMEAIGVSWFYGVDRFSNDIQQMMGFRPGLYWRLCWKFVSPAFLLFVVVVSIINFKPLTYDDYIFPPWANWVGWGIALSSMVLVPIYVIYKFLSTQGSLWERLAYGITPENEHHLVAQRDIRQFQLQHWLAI
Series [10] has as its target T5, human organic cation transporter 1 (OCT1) (Homo sapiens, UniProt O15245).
T5 sequence (O15245 1-554): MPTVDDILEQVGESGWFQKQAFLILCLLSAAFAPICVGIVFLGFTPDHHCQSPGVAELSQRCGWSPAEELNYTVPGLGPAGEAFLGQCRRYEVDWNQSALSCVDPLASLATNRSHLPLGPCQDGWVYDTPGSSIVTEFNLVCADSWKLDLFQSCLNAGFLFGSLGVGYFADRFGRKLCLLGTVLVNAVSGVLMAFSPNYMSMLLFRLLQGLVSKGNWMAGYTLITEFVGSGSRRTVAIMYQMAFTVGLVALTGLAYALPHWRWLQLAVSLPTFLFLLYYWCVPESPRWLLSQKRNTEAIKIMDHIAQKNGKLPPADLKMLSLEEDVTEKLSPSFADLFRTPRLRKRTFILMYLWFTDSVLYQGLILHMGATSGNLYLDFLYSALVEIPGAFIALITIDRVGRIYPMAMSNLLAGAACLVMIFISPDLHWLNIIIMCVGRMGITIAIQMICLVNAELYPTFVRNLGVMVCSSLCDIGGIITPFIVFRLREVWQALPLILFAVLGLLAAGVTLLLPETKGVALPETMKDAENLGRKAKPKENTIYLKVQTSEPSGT
The description is as above.

For series [11], the target named is T4, NET. The experiment in a line: Release (superfusion) assay, NET mediated [3H]MPP+ release. The settings on record: for Emax: read-out: Emax [95%-CI], NET mediated [3H]MPP+ release.
Series [12] in a line: Metabolic stability, substrate depletion in pooled human liver microsomes. The settings on record: for CLint scaled at 0.5 μM / half-life at 0.5 μM / microsomal CLint at 0.5 μM: human, pooled human liver microsomes; for clearance classification: pHLM. Background: Liver microsomes are vesicles of endoplasmic reticulum, rich in cytochrome P450 enzymes.

Like-named read-outs stand apart in the source and are kept apart here.

T1 sequence (P28223 whole entry): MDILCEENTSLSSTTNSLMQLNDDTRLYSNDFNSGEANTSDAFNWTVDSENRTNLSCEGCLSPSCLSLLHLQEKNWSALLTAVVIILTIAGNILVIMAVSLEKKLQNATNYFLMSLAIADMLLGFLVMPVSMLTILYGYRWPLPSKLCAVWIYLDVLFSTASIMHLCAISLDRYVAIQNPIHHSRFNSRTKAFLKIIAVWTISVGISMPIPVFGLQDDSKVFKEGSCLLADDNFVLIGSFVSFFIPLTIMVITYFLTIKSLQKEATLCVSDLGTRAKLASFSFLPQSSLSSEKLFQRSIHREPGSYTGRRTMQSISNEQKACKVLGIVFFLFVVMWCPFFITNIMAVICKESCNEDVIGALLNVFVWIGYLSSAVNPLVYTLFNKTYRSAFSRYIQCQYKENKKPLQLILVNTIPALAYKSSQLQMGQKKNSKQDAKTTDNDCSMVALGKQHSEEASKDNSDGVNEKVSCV

For `CC(N)Cc1ccc2c(c1)SCO2` (centres unmarked) [SDA, 1-(1,3-benzoxathiol-5-yl)propan-2-amine], the “Emax ± SEM, %5-HT response 5-HT2A” value in series [1] was 92.4 ± 2.0%. The EC50 in series [1] (read-out: EC50 5-HT2A) is 340 nM. The EC50 in series [1] (read-out: pEC50 ± SEM 5-HT2A (converted)) was 302 nM. In addition, in series [2], the EC50 is 41.5 nM and the Emax was found to be 88.2 ± 3.7%. Moreover, in series [3], the “rewarding effects (CPP preference score)” value is “neither SDA nor SDMA induced significant rewarding effects” and the CPP preference score result was “significant preference score”. Further, the HTR counts entry in [4] is listed as “dose-related increase in HTR counts peaking at 3 mg/kg”. Moreover, the “DAT/SERT ratio (IC50)” value in series [5] came to 2.42. In series [6], the “type of releaser at DAT” value was “partial releasers” and the “DAT/SERT ratio (EC50)” value was 0.66. For the same molecule, the Emax in series [7] came out at 55.4%. The same molecule came in with an IC50 in [8] of 3090 ± 680 nM. In series [9], the half-inhibitory concentration (IC50) was determined as 850 ± 240 nM. In series [10], this molecule came in with an IC50 of 3650 ± 270 nM. For the same molecule, in series [11], the EC50 came out at 150 nM, the “type of releaser at NET” value is on record as “full releasers” and the Emax was determined as 99.6%. Also, in series [12], the CLint scaled at 0.5 μM is 9.7 mL/min/kg, the half-life at 0.5 μM is 1.02 h, the microsomal CLint at 0.5 μM came out at 11.4 µL/min/mg and the clearance classification entry is recorded as “low clearance compounds”.
As to `CNC(C)Cc1ccc2c(c1)SCO2` (centres unmarked) [SDMA, 1-(1,3-benzoxathiol-5-yl)-N-methylpropan-2-amine], in [1], the “Emax ± SEM, %5-HT response 5-HT2A” value is 68.2 ± 1.8%. For the same molecule, in series [1] (read-out: EC50 5-HT2A), the EC50 was 1400 nM. In addition, the Emax in [1] (HEK-293T, read-out: Emax ± SEM, %5-HT response 5-HT2A, Gq dissociation BRET, relative to 5-HT) was below 70%. In [2], the EC50 worked out at 357 nM and the Emax amounted to 70 ± 3.4%. For the same molecule, in [3], the “rewarding effects (CPP preference score)” value is “neither SDA nor SDMA induced significant rewarding effects” and the CPP preference score result was “positive preference score at the same dose, it did not reach significance”. Moreover, the HTR counts entry in series [4] is “Neither MDMA nor SDMA induced an appreciable increase in HTR counts”. Also, the “DAT/SERT ratio (IC50)” value in series [5] was determined as 2.15. Moreover, in [6], the “type of releaser at DAT” value is given as “partial releasers” and the “DAT/SERT ratio (EC50)” value is listed as 0.37. Besides, the Emax in [7] was 35.4%. The IC50 in series [8] is 4000 ± 870 nM. For the same molecule, the IC50 in series [9] is 770 ± 390 nM. This molecule also returned an IC50 in series [10] of 4390 ± 2840 nM. Moreover, in series [11], the EC50 turned out to be 360 nM, the “type of releaser at NET” value is reported as “full releasers” and the Emax came to 104%. Besides, in series [12], the intrinsic metabolic clearance (CLint scaled) at 0.5 μM was found to be 8.4 mL/min/kg, the half-life at 0.5 μM is 1.18 h, the microsomal CLint at 0.5 μM stood at 9.8 µL/min/mg and the clearance classification entry was “low clearance compounds”.

Usually Emax stands for the maximal effect, on the per cent scale that the assay sets. One may read the IC50 as the concentration that inhibits the measured activity by half. One may read the CLint scaled as the rate of metabolic loss divided by the concentration. Read a low CLint scaled as slow turnover. The term half-life denotes how long it takes for the measured level to halve. Read a low half-life as rapid decline. In general, microsomal CLint refers to a measure of how fast metabolising enzymes remove a compound, apart from limits set by blood flow. A low value points to greater metabolic stability.
